In US5869500A, “Pyridone compounds useful in treating Alzheimer's disease” (Hoffmann-La Roche Inc., priority 1996, dated 1999):
pIC50: −log10 of the molar value.

System: Aβ production in HEK cells over-expressing mutated β-APP (SFAD)
Assay: Aβ production inhibition, sandwich-ELISA in HEK cells, over-expressed mutated β-APP (SE-SFAD)
Format: cell-based, human
Details: Homo sapiens, HEK293, HEK cells; for Emax: maximum inhibition plateau, read-out: SE-SFAD max. inhibition %; for pIC50: based on the respective plateau of maximum inhibition
Protocol: The effect of test substances on the inhibition of Aβ-amyloid production can be measured in the supernatant of cell cultures of β-APP expressed cells using ELISA tests or other quantitative determination methods for β-APP degradation products. Typically, 8×10^5 cells (e.g. HEK cells, which express recombinant human β-APP variants) are plated out in each well of a culture dish having 24 wells in growth media such as e.g. OPTIMEM (Gibco) and the test compound is then added. After an incubation period of 24 to 48 hours at 37° C. in a 10% CO2 atmosphere the supernatant is removed from the cell cultures and the β-APP degradation products (e.g. Aβ or β-[…]) are determined with the aid of ELISA (or sandwich ELISA) analysis or by means of quantitative immunoprecipitation (after metabolic radiolabelling of the cell proteins). Typically, 300 μl of the cell supernatant are tested according to the state of the art for ELISA tests in culture dishes having 96 wells. In the case of sandwich ELISA for Aβ, the binding antibody can be directed against the first 16 amino acids of Aβ-peptide (e.g. 6E10 Senetek, Maryland Heights, Mo.) and the detection antibody can be directed against amino acids 17-40 or 17-42 of Aβ and carries a detection system such as e.g. peroxidase. A simple ELISA test with an antibody, e.g. 22C11 (Boehringer Mannheim), can be used as the test for […]; the second antibody can be an anti-(mouse) Ig having a detection system, such as e.g. peroxidase. The peroxidase reaction can be carried out e.g. using a TMB substrate (BioRAD) and the measurements can be carried out at 650 nm using an ELISA reading apparatus. […] SE-SFAD signifies the Aβ production inhibition measured using sandwich-ELISA in HEK cells, SFAD signifies over-expressed mutated β-APP, and SE-WT signifies the Aβ production inhibition measured using sandwich-ELISA in HEK cells which over-express Wild type β-APP. The IC50 values are based on the respective plateau of maximum inhibition.

Row | Structure (SMILES) | Emax [%] | pIC50
1 | CCc1cc2ccn3c(=O)c(-c4ccc(OCc5ccccc5)cc4)cc(C(=O)N(CCOC)c4ccccc4)c3c2s1 [Compound 78, 8-(4-Benzyloxy-phenyl)-2-ethyl-7-oxo-7H-thieno[2,3-a]quinolizine-10-carboxylic acid (2-methoxy-ethyl)-phenyl-amide] | 40 | –
2 | COc1ccccc1-c1cc(C(=O)NCc2ccccc2)c2c3sccc3ccn2c1=O [Compound 135, 8-(2-Methoxy-phenyl)-7-oxo-7H-thieno[2,3-a]quinolizine-10-carboxylic acid benzyl-amide] | 100 | 5.52
3 | CCN(CCOC)C(=O)c1cc(-c2ccc(C)cc2)c(=O)n2ccc3ccsc3c12 [Compound 149, 7--Oxo-8-p-tolyl-7H-thieno[2,3-a]quinolizine-10-carboxylic acid ethyl-(2-methoxy-ethyl)-amide] | 100 | 5.62
4 | CCOC(=O)c1cc(-c2ccc(-c3ccccc3)cc2)c(=O)n2ccc3ccsc3c12 [Compound 94, Ethyl 8-(biphenyl-4-yl)-7-oxo-7H-thieno[2,3-a]quinolizine-10-carboxylate] | 20 to 40 | –
5 | CCN(CCOC)C(=O)c1cc(-c2ccc(Oc3ccccc3)cc2)c(=O)n2ccc3ccsc3c12 [Compound 99, 7-Oxo-8-(4-phenoxy-phenyl)-7H-thieno[2,3-a]quinolizine-10-carboxylic acid ethyl-(2-methoxy-ethyl)-amide] | 100 | 5.60
6 | COC(=O)c1cc(-c2ccc(Oc3ccccc3)cc2)c(=O)n2ccc3ccsc3c12 [Compound 96, Methyl 7-oxo-8-(4-phenoxy-phenyl)-7H-thieno[2,3-a]quinolizine-10-carboxylate] | 40 | 6.00
7 | CCN(CCOC)C(=O)c1cc(-c2ccccc2OC)c(=O)n2ccc3ccsc3c12 [Compound 122, 8-(2-Methoxy-phenyl)-7-oxo-7H-thieno[2,3-a]quinolizine-10-carboxylic acidethyl-(2-methoxy-ethyl)-amide] | 25 | 5.10
8 | COCCN(CCOC)C(=O)c1cc(-c2ccc(OCc3ccccc3)cc2)c(=O)n2ccc3c(ncn3C)c12 [Compound 103, 8-(4-Benzyloxy-phenyl)-3-methyl-7-oxo-3,7-dihydro-imidazo[4,5-a]-quinolizine-10-carboxylic acid bis-(2-methoxy-ethyl)-amide] | 35 to 55 | 5.30
9 | COCCN(C(=O)c1cc(-c2ccc(OCc3ccccc3)cc2)c(=O)n2ccc3cc(C(C)O)sc3c12)c1ccccc1 (racemic) [Compound 75, (RS)-8-(4-Benzyloxy-phenyl)-2-(1-hydroxy-ethyl)-7-oxo-7H-thieno[2,3-a]quinolizine-10-carboxylic acid (2-methoxy-ethyl)-phenyl-amide] | 100 | 5.89
10 | O=C(c1cc(-c2ccc(OCc3ccccc3)cc2)c(=O)n2ccc3ccsc3c12)N(CCO)c1ccccc1 [Compound 73, 8-(4-Benzyloxy-phenyl)-7-oxo-7H-thieno[2,3-a]quinolizine-10-carboxylic acid (2-hydroxy-ethyl)-phenyl-amide] | 55 | 5.89
11 | NC(=O)c1cc(-c2ccccc2)c(=O)n2ccc3ccsc3c12 [Compound 56, 7-Oxo-8-phenyl-7H-thieno[2,3-a]quinolizine-10-carboxylic acid amide] | 35 | 6.00
12 | COCCN(C(=O)c1cc(-c2ccccc2OC)c(=O)n2ccc3ccsc3c12)c1ccccc1 [Compound 121, 8-(2-Methoxy-phenyl)-7-oxo-7H-thieno[2,3-a]quinolizine-10-carboxylic acid (2-methoxy-ethyl)-phenyl-amide] | 100 | 5.74
13 | COCCN(C(=O)c1cc(-c2ccc(OCc3ccccc3)cc2)c(=O)n2ccc3c(ncn3C)c12)c1ccccc1 [Compound 102, 8-(4-Benzyloxy-phenyl)-3-methyl-7-oxo-3,7-dihydro-imidazo [4,5-a]quinolizine-10-carboxylic acid (2-methoxy-ethyl)-phenyl-amide] | 80 | 5.44
14 | CCOC(=O)c1cc(-c2ccc(C)cc2)c(=O)n2ccc3ccsc3c12 [Compound 151, Ethyl 7-oxo-8-p-tolyl-7H-thieno[2,3-a]quinolizine-10-carboxylate] | 100 | 6.10
15 | COCCN(Cc1ccccc1)C(=O)c1cc(-c2ccc(Oc3ccccc3)cc2)c(=O)n2ccc3ccsc3c12 [Compound 100, 7--Oxo-8-(4-phenoxy-phenyl)-7H-thieno[2,3-a]quinolizine-10-carboxylic acid benzyl-(2-methoxy-ethyl)-amide] | 100 | 6.22
16 | COCCN(Cc1ccccc1)C(=O)c1cc(-c2ccc(C(C)(C)C)cc2)c(=O)n2ccc3ccsc3c12 [Compound 113, 8-(4-tert-Butyl-phenyl)-7-oxo-7H-thieno[2,3-a]quinolizine-10-carboxylicacid benzyl-(2-methoxy-ethyl)-amide] | 100 | 5.52
17 | COCCNC(=O)c1cc(-c2ccc(OCc3ccccc3)cc2)c(=O)n2ccc3ccsc3c12 [Compound 66, 8-(4-Benzyloxy-phenyl)-7-oxo-7H-thieno[2,3-a]quinolizine-10-carboxylic acid (2-methoxy-ethyl)-amide] | 60 | 4.66
18 | COCCN(Cc1cccs1)C(=O)c1cc(-c2ccccc2OC)c(=O)n2ccc3ccsc3c12 [Compound 140, 8-(2-Methoxy-phenyl)-7-oxo-7H-thieno[2,3-a]quinolizine-10-carboxylic acid (2-methoxy-ethyl)-thiophen-2-yl-methyl-amide] | 30 to 100 | 5.60
19 | COCCN(C(=O)c1cc(-c2ccc(OCc3ccccc3)cc2)c(=O)n2ccc3cc(C)sc3c12)c1ccccc1 [Compound 74] | 100 | 6.52
20 | CCCc1cc2ccn3c(=O)c(-c4ccc(OCc5ccccc5)cc4)cc(C(=O)N(CCOC)c4ccccc4)c3c2s1 [Compound 79, 8-(4-Benzyloxy-phenyl)-2-propyl-7-oxo-7H-thieno[2,3-a]quinolizine-10-carboxylic acid (2-methoxy-ethyl)-phenyl-amide] | 20 to 35 | –
21 | COCCN(CC1CC1)C(=O)c1cc(-c2ccc(OC)cc2)c(=O)n2ccc3ccsc3c12 [Compound 146, 8-(4-Methoxy-phenyl)-7-oxo-7H-thieno[2,3-a]quinolizine-10-carboxylic acid cyclopropylmethyl-(2-methoxy-ethyl)-amide] | 100 | 5.82
22 | COCCN(CCOC)C(=O)c1cc(-c2ccc(Oc3ccccc3)cc2)c(=O)n2ccc3ccsc3c12 [Compound 97, 7-Oxo-8-(4-phenoxy-phenyl)-7H-thieno[2,3-a]quinolizine-10-carboxylic acid bis-(2-methoxy-ethyl)-amide] | 100 | 5.66
23 | O=C(O[C@@H]1CN(C(=O)OCc2ccccc2)C[C@@H]1O)c1cc(-c2ccccc2)c(=O)n2ccc3ccsc3c12 (racemic) [Compound 57, (3RS,4SR)-1-Benzyloxy-carbonyl-4-hydroxy-pyrrolidin-3-yl 7-oxo-8-phenyl-7H-thieno[2,3-a]quinolizine-10-carboxylate] | 35 | 6.30
24 | COc1cccc(-c2cc(C(=O)Nc3ccncc3)c3c4sccc4ccn3c2=O)c1 [Compound 124, 8-(3-Methoxy-phenyl)-7-oxo-7H-thieno[2,3-a]quinolizine-10-carboxylic acid pyridin-4yl-amide] | 35 | 6.10
25 | COC(=O)c1cc(-c2cccc(C(F)(F)F)c2)c(=O)n2ccccc12 [Compound 17, Methyl 4-oxo-3-(3-trifluoromethyl-phenyl)-4H-quinolizine-1-carboxylate] | 30 | 6.30
26 | O=C1CN(C(=O)c2cc(-c3ccccc3)c(=O)n3ccc4ccsc4c23)C1 [Compound 7, 10-(3-Oxo-azetidin-1-carbonyl)-8-phenyl-thieno[2,3-a]quinolizin-7-one] | 100 | 4.30
27 | O=C(NC1CCCCC1O)c1cc(-c2ccccc2)c(=O)n2ccc3ccsc3c12 (centres unmarked) [Compound 25] | 100 | 5.00
28 | COCCN(CC1CC1)C(=O)c1cc(-c2ccccc2OC)c(=O)n2ccc3ccsc3c12 [Compound 119, 8-(2-Methoxy-phenyl)-7-oxo-7H-thieno[2,3-a]quinolizine-10-carboxylic acid cyclopropylmethyl-(2-methoxy-ethyl)-amide] | 60 to 80 | 5.80
